The text below walks through data of patent US20070015149A1, “Prlz regulatory elements in the treatment of disease and the discovery of therapeutics” (priority 2002, published 2007).

One assay relates to PrLZ expression. The assay can be described thus: Androgen-activated PrLZ expression in prostate cancer cell lines after androgen deprivation. The format is cell-based, human. How it is done:
(§1) As an accessory sex organ, development and function of the prostate gland are controlled by androgens, through the mediation of the AR (Gelmann, J. Clin. Oncol. 20:3001-15, 2002). To investigate the possible regulation of PrLZ by androgens, we treated prostate cancer cell lines with an androgen analog, methyltrienolone (R1881, 1 nM), after androgen deprivation. Under cell culture conditions for androgen deprivation (phenol red-free RPMI1640 for 48 hours), there was a marked decline in PrLZ expression in all the prostate cancer cell lines. […] This culture system, or another like it, can be used to identify agents that modulate (by either increasing or decreasing) PrLZ expression.
Expression studies: The 502 bp PrLZ gene-specific fragment was subcloned after PCR amplification of the PrLZ cDNA in pBK-CMV, with primers: […], and […]. The amplified DNA was cloned into pGEM-T easy (Promega) and verified by DNA sequencing. The fragment was released from the vector by EcoRi and used in hybridization reactions. Standard protocols were used in Southern and Northern blot hybridizations (Sambrook et al., Molecular cloning, a laboratory manual, Clod Spring Harbor Laboratory Press, 2001), with α-^32P-dCTP used in the labeling step. […]

Another assay deals with PSA expression. The assay can be described thus: Androgen-activated PSA expression in LNCaP lineage cells. It counts as cell-based, human. The note with it: LNCaP vs C4-2 and C4-2B4 cells. As for the experimental part: as §1
By comparing the patterns of androgen-activated expression of PrLZ and PSA, it became clear that PrLZ was controlled by a regulatory mechanism that was different from the one controlling the PSA expression. […] Thus, along the transition from an AD to an AI state, there were heterologous changes in AR mediated gene regulation. While LNCAP derivative cell lines lost the mechanism of AR-controlled PSA production, they maintained the capability to regulate some other androgen responsive genes, including PrLZ.

The test system of assay [1] is expression of TPD52 members. The note with it: HL-60 and K-562 cells; cited from earlier work.

Turning to `C[C@]1(O)CC[C@H]2[C@@H]3CCC4=CC(=O)CCC4=C3C=C[C@@]21C` [R1881, methyltrienolone], in the assay on PrLZ expression (R1881 1 nM after androgen deprivation (phenol red-free RPMI1640, 48 hours), prostate cancer cell lines), the “PrLZ expression upon androgen treatment” value was “dramatically activated the expression of the PrLZ”. Further, in the assay on PrLZ expression (all LNCaP lineage cells (LNCaP, C4-2, C4-2B4)), the “PrLZ transcription upon androgen treatment” value was “marked PrLZ transcription”. Moreover, the “PSA expression upon androgen treatment” value with PSA expression is reported as “androgen-dependent up-regulation only in LCNaP cells”.
`CCCCCCCCCCCCCC(=O)O[C@@H]1[C@@H](C)[C@@]2(O)[C@@H](C=C(CO)C[C@]3(O)C(=O)C(C)=C[C@@H]23)[C@H]2C(C)(C)[C@]12OC(C)=O` [TPA, 12-O-trtradecanoylphorbol-13-acetate]: the “Expression of TPD52 members upon treatment” value in assay [1] is “inhibited”.
